The results in this text go back to US20030045557A1, “Thiadiazoles and oxadiazoles and their use as phosphodiesterase-7 inhibitors” (priority 2000, published 2003).

pIC50: −log10 of the molar value.

The target of the test is T1, PDE7A1 (Homo sapiens, UniProt Q13946).
T1 construct: made in house; host or cells: Sf21 insect cells (baculovirus expression system)
T1 sequence (Q13946 whole entry, species assumed): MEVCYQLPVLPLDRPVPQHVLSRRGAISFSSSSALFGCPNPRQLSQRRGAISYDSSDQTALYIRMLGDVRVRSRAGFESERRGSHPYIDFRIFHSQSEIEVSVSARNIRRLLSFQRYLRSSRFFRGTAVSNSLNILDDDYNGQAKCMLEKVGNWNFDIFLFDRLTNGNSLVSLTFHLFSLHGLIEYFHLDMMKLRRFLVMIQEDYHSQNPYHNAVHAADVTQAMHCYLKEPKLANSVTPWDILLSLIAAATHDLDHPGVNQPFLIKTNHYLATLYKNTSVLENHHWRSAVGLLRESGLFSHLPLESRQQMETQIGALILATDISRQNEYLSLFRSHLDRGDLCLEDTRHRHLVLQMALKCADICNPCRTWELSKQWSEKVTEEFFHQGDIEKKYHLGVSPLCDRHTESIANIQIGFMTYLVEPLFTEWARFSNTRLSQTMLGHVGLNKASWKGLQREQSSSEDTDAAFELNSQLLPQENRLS
The test is described as follows: In vitro inhibition of phosphodiesterase 7 (enzymatic activity, cAMP substrate 50 nM). To be noted: PDE7A1 expressed in Sf 21 insect cells; cAMP 50 nM; reaction 10 minutes; read-out: IC50 (PDE7). Type of test: biochemical. Here is the method:
The capacity of the compounds of the invention to inhibit cyclic nucleotide phosphodiesterases was evaluated by measuring their IC50 (concentration necessary to inhibit the enzymatic activity by 50%).
PDE3A3, PDE4D3, and PDE7A1 were cloned and expressed in insect cells Sf 21 using the baculovirus expression system. The source of PDE103 and of PDE503 were human cell lines (respectively TPH1 human monocytes and MCF7 human breast adenocarcinoma). The various types of phosphodiesterases were obtained partially purified on an anion exchange column (Mono Q) according to a method adapted from Lavan B. E., Lakey T., Houslay M.D., Biochemical Pharmacology, 1989;38(22):4123-4136.
Measurement of the enzymatic activity for the various types of PDE was then made according to a method adapted from Thompson W. J. et al., Advances in Cyclic Nucleotide Research, ed. G. Brooker et al. New York: Raven Press, 1979;10:69-92.
The substrate used was cGMP for PDE1 and PDE5 and cAMP for PDE3, PDE4, and PDE7. The substrate concentration was 0.2 μM for PDE1, PDE3, and PDE5, 0.25 μM for PDE4, and 50 nM for PDE7.
The enzymatic reaction was stopped after 1 hour for PDE1, PDE3, and PDE5 and 10 minutes for PDE4 and PDE7.
Regarding `Cn1nc(-c2ccc(Cl)cc2)s/c1=N\[C@@H]1CCCC[C@H]1O` (relative stereo) [Example I8, (1R*,2R*)-2-[5-(4-Chloro-phenyl)-3-methyl-3H-[1,3,4]thiadiazol-2-ylideneamino]-cyclohexanol], the pIC50 – broadly, −log10 of the IC50, conventionally taken in molar units – is 6.35. The result for `Cn1nc(-c2ccc(S(C)(=O)=O)cc2)s/c1=N\[C@@H]1CCCC[C@H]1O` (relative stereo) [Example I9, (1R*,2R*)-2-[5-(4-Methanesulfonyl-phenyl)-3-methyl-3H-[1,3,4]thiadiazol-2-ylideneamino-cyclohexanol] reads 6.55; that for `Cn1nc(-c2ccc(Cl)cc2)s/c1=N\[C@@H]1CCCC[C@@H]1O` (relative stereo) [I3,25, (1R*,2S*)-2-[5-(4-Chloro-phenyl)-3-methyl-3H-[1,3,4]thiadiazol-2-ylideneamino]-cyclohexanol], 5.92. In the case of `Cn1nc(-c2ccc(Cl)cc2)s/c1=N\c1cccc(C(=O)O)c1` [Example I1, 3-[5-(4-Chloro-phenyl)-3-methyl-3H-[1,3,4]thiadiazol-2-ylideneamino]-benzoic acid] it was 6.82. The result for `Cn1nc(-c2ccc(S(C)(=O)=O)cc2)s/c1=N\c1cccc(C(=O)O)c1` [Example I4] reads 6.82; that for `Cn1nc(-c2ccc(Cl)cc2)s/c1=N\C1CC2CCC1C2` (stereo not drawn) [Example I7, Bicyclo[2.2.1]hept-2-yl-[5-(4-chloro-phenyl)-3-methyl-3H-[1,3,4]thiadiazol-2-ylidene]-amine], 5.98. Regarding `Cn1nc(-c2ccc(C(F)(F)F)cc2)s/c1=N\C1CCCCC1` [Example I11, Cyclohexyl-[3-methyl-5-(4-trifluoromethyl-phenyl)-3H-[1,3,4]thiadiazol-2-ylidene]-amine], the pIC50 is 6.01. With `Cn1nc(-c2ccncc2)s/c1=N\C1CCCCC1` [Example I12, Cyclohexyl-(3-methyl-5-pyridin-4-yl-3H-[1,3,4]thiadiazol-2-ylidene)-amine], the pIC50 was 6.54.

Take `Cn1nc(-c2cccc(Cl)c2)s/c1=N\C1CCCCC1` [Example I13, [5-(3-Chloro-phenyl)-3-methyl-3H-[1,3,4]thiadiazol-2-ylidene]-cyclohexyl-amine]: the pIC50 was 6.15.

On to `Cn1nc(-c2ccc(C#N)cc2)s/c1=N\C1CCCCC1` [Example I14, 4-(5-Cyclohexylimino-4-methyl-4,5-dihydro-[1,3,4]thiadiazol-2-yl)-benzonitrile], for which the pIC50 is 6.57.

With `Cn1nc(-c2ccc(S(C)(=O)=O)cc2)s/c1=N\C1CCCCC1` [Example I15, Cyclohexyl-[5-(4-methanesulfonyl-phenyl)-3-methyl-3H-[1,3,4]thiadiazol-2-ylidene]-amine], the pIC50 was 6.85.

On to `Cn1nc(-c2ccc(Cl)c(S(N)(=O)=O)c2)s/c1=N\C1CCCCC1` [Example I19, 2-Chloro-5-(5-cyclohexylimino-4-methyl-4,5-dihydro-[1,3,4]thiadiazol-2-yl)-benzenesulfonamide], for which the pIC50 is 7.15.

In the case of `COC(=O)c1cccc(-c2nn(C)/c(=N/C3CCCCC3)s2)c1` [Example I21, 3-(5-Cyclohexylimino-4-methyl-4,5-dihydro-[1,3,4]thiadiazol-2-yl)-benzoic acid methyl ester], the pIC50 was 6.82. The result for `Cn1nc(-c2ccc(O)c(O)c2)s/c1=N\C1CCCCC1` [Example I22, 4-(5-Cyclohexylimino-4-methyl-4,5-dihydro-[1,3,4]thiadiazol-2-yl)-benzene-1,2-diol; compound with trifluoro methanesulfonic acid] reads 6.00; that for `COc1cc(-c2nn(C)/c(=N/C3CCCCC3)s2)cc(OC)c1O` [Example I23, 4-(5-Cyclohexylimino-4-methyl-4,5-dihydro-[1,3,4]thiadiazol-2-yl)-2,6-dimethoxy-phenol], 6.07; that for `Cn1nc(-c2ccc3cccc(O)c3n2)s/c1=N\C1CCCCC1` [Example I24, 2-(5-Cyclohexylimino-4-methyl-4,5-dihydro-[1,3,4]thiadiazol-2-yl)-quinolin-8-ol], 6.44. Turning to `Cn1nc(-c2cnccn2)s/c1=N\C1CCCCC1` [Example I25, Cyclohexyl-(3-methyl-5-pyrazin-2-yl-3H-[1,3,4]thiadiazol-2-ylidene)-amine], the pIC50 was 6.33. In the case of `COc1ccc(/C=C/c2nn(C)/c(=N/C3CCCCC3)s2)cc1O` [Example I26, 5-[(E)-2-(5-Cyclohexylimino-4-methyl-4,5-dihydro-[1,3,4]thiadiazol-2-yl)-vinyl]-2-methoxy-phenol] it was 6.40. `COc1cc(-c2nn(C)/c(=N/C3CCCCC3)s2)ccc1O` [Example I27, 4-(5-Cyclohexylimino-4-methyl-4,5-dihydro-[1,3,4]thiadiazol-2-yl)-2-methoxy-phenol]: the pIC50 was 6.34. In the case of `Cn1nc(-c2cccc3cccnc23)s/c1=N\C1CCCCC1` [Example I28, Cyclohexyl-(3-methyl-5-quinolin-8-yl-3H-[1,3,4]thiadiazol-2-ylidene)-amine] it was 6.64. Turning to `CN(C)c1ccc(-c2nn(C)/c(=N/C3CCCCC3)s2)cc1` [Example I29, [4-(5-Cyclohexylimino-4-methyl-4,5-dihydro-[1,3,4]thiadiazol-2-yl)-phenyl]-dimethyl-amine], the pIC50 is 6.52. In the case of `Cn1nc(-c2ccc(S(N)(=O)=O)cc2)s/c1=N\C1CCCCC1` [Example I30, 4-(5-Cyclohexylimino-4-methyl-4,5-dihydro-[1,3,4]thiadiazol-2-yl)-benzenesulfonamide] it was 6.85. Regarding `Cn1nc(-c2cc3cc(Cl)ccc3[nH]2)s/c1=N\C1CCCCC1` [Example I31, [5-(5-Chloro-1H-indol-2-yl)-3-methyl-3H-[1,3,4]thiadiazol-2-ylidene]-cyclohexyl-amine; compound with trifluoro-methanesulfonic acid], the pIC50 is 6.64. For `COc1ccc(-c2nn(C)/c(=N/C3CCCCC3)s2)cc1O` [Example I32, 5-(5-Cyclohexylimino-4-methyl-4,5-dihydro-[1,3,4]thiadiazol-2-yl)-2-methoxy-phenol; compound with 1,1,1-trifluoro-methanesulfonic acid], the pIC50 was 6.64. Take `Cn1nc(-c2ccc(O)cc2)s/c1=N\C1CCCCC1` [Example I33, 4-(5-Cyclohexylimino-4-methyl-4,5-dihydro-[1,3,4]thiadiazol-2-yl)-phenol; compound with 1,1,1-trifluoro-methanesulfonic acid]: the negative logarithm of the IC50 (pIC50) was 6.62. With `COc1ccc(-c2nn(C)/c(=N/C3CCCCC3)s2)cc1OC` [Example I34, Cyclohexyl-[5-(3,4-dimethoxy-phenyl)-3-methyl-3H-[1,3,4]thiadiazol-2-ylidene]-amine], the pIC50 is 6.20. `COc1ccc(-c2nn(C)/c(=N/C3CCCCC3)s2)cc1Br` [Example I35, [5-(3-Bromo-4-methoxy-phenyl)-3-methyl-3H-[1,3,4]thiadiazol-2-ylidene]-cyclohexyl-amine]: the pIC50 is 6.24. In the case of `Cn1nc(-c2cccc(O)c2)s/c1=N\C1CCCCC1` [Example I36, 3-(5-Cyclohexylimino-4-methyl-4,5-dihydro-[1,3,4]thiadiazol-2-yl)-phenol] it was 6.54. In the case of `COC(=O)c1ccc(-c2nn(C)/c(=N/C3CCCCC3)s2)cc1` [Example I37, 4-(5-Cyclohexylimino-4-methyl-4,5-dihydro-[1,3,4]thiadiazol-2-yl)-benzoic acid methyl ester] it was 6.64; in that of `Cn1nc(-c2cccnc2)s/c1=N\C1CCCCC1` [Example I38, Cyclohexyl-(3-methyl-5-pyridin-3-yl-3H-[1,3,4]thiadiazol-2-ylidene)-amine], 6.47. As for `Cn1nc(-c2cccc(S(N)(=O)=O)c2)s/c1=N\C1CCCCC1` [Example I39, 3-(5-Cyclohexylimino-4-methyl-4,5-dihydro-[1,3,4]thiadiazol-2-yl)-benzenesulfonamide], the pIC50 was 6.70. The result for `Cn1nc(-c2ccc3c(c2)OCO3)s/c1=N\C1CCCCC1` [Example I40, (5-Benzo[1,3]dioxol-5-yl-3-methyl-3H-[1,3,4]thiadiazol-2-ylidene)-cyclohexyl-amine] reads 6.35; that for `COc1cc(-c2nn(C)/c(=N/C3CCCCC3)s2)cc(OC)c1OC` [Example I41, Cyclohexyl-[3-methyl-5-(3,4,5-trimethoxy-phenyl)-3H-[1,3,4]thiadiazol-2-ylidene]-amine], 5.89. On to `Cn1nc(-c2ccc(Cl)cc2)s/c1=N\c1ccc(F)c(C(=O)O)c1` [I2,1, 5-[5-(4-Chloro-phenyl)-3-methyl-3H[1,3,4]thiadiazol-2-ylideneamino]-2-fluoro-benzoic acid], for which the pIC50 was 6.89. The result for `Cn1nc(-c2ccccc2Cl)s/c1=N\C1CCCCC1` [I10,1, [5-(2-Chloro-phenyl)-3-methyl-3H-[1,3,4]thiadiazol-2-ylidene]-cyclohexyl-amine] reads 5.89. For the molecule `Cn1nc(-c2cc(Cl)cc(Cl)c2)s/c1=N\C1CCCCC1` [I17,1, Cyclohexyl-[5-(3,5-dichloro-phenyl)-3-methyl-3H-[1,3,4]thiadiazol-2-ylidene]-amine], the pIC50 was 5.89.
